Drawing on patent publication US9428469B2, “Antiviral compounds” (priority 2013, dated 2016), this text covers EC50 for 30 compounds.

In one experiment the test system is HCVpp GT-1b. The experiment in a line: microbe, parasite or virus in culture. Format: cell-based, Hepatitis C virus (GT1b Con1 strain). The conditions noted are these: Hepatitis C virus, GT1B, 72 h, read-out: HCVpp GT-1b (EC50, μM).
A further experiment deals with VSVpp. The experiment in a line: microbe, parasite or virus in culture. Format: cell-based. The conditions noted are these: Vesicular stomatitis virus, 72 h, read-out: VSVpp (EC50, μM).

Structures are written as SMILES. Structures can show the parent of a compound that is named as a salt.

As for `CN(C)S(=O)(=O)c1ccc(CNc2nc(Nc3cc(Cl)cc(Cl)c3)n[nH]2)cc1` [Compound 17, 4-((3-(3,5-dichlorophenylamino)-1H-1,2,4-triazol-5-ylamino)methyl)-N,N-dimethylbenzenesulfonamide], the EC50 with HCVpp GT-1b and with VSVpp was 10 µM throughout.
Regarding `FC(F)(F)c1ccc(CNc2nc(Nc3cc(Cl)c(Br)c(C(F)(F)F)c3)n[nH]2)cc1` [Compound 1, N3-(4-bromo-3-chloro-5-(trifluoromethyl)phenyl)-N5-(4-(trifluoromethyl)benzyl)-1H-1,2,4-triazole-3,5-diamine], the EC50 – broadly, the concentration at which the effect is half-maximal – with HCVpp GT-1b came out at 1.35 µM; in the experiment on VSVpp, 13.7 µM.
For `O=S(=O)(c1ccc(CNc2nc(Nc3cc(Cl)cc(Cl)c3)n[nH]2)cc1)N1CCOCC1` [Compound 21, N3-(3,5-dichlorophenyl)-N5-(4-(morpholinosulfonyl)benzyl)-1H-1,2,4-triazole-3,5-diamine], in that order: 10 µM and 10 µM.
For `FC(F)(F)c1cccc(CNc2nc(Nc3cc(Cl)cc(Cl)c3)n[nH]2)c1` [Compound 26, N*3*-(3,5-Dichloro-phenyl)-N*5*-(3-trifluoromethyl-benzyl)-1H-[1,2,4]triazole-3,5-diamine], in that order: 0.709 µM and 30.3 µM.
For `N#Cc1ccc(CNc2nc(Nc3cc(Cl)cc(Cl)c3)n[nH]2)cc1` [Compound 16, 4-((3-(3,5-dichlorophenylamino)-1H-1,2,4-triazol-5-ylamino)methyl)benzonitrile], in that order: 3.34 µM and 10 µM.
With `CC(C)(C)OC(=O)c1ccc(CNc2nc(Nc3cc(Cl)c(C#N)c(Cl)c3)n[nH]2)cc1` [Compound 23, tert-butyl 4-((3-(3,5-dichloro-4-cyanophenylamino)-1H-1,2,4-triazol-5-ylamino)methyl)benzoate], the EC50 in the experiment on HCVpp GT-1b is 0.029 µM; in the experiment with VSVpp, 10 µM.
For `Nc1ccc(CNc2nc(Nc3cc(Cl)cc(Cl)c3)n[nH]2)cn1` [Compound 10, N5-((6-aminopyridin-3-yl)methyl)-N3-(3,5-dichlorophenyl)-1H-1,2,4-triazole-3,5-diamine], in that order: 58.3 µM and 100 µM.
For `CC(C)(C)OC(=O)Nc1ccc(CNc2nc(Nc3cc(Cl)cc(Cl)c3)n[nH]2)cn1` [Compound 6, Tert-butyl 5-((3-(3,5-dichlorophenylamino)-1H-1,2,4-triazol-5-ylamino)methyl)pyridin-2-ylcarbamate], in that order: 7.81 µM and 14.5 µM.
For the compound `FC(F)(F)c1ccc(CNc2nc(Nc3cc(Cl)cc(Cl)c3)n[nH]2)cc1Cl` [Compound 19, N5-(3-chloro-4-(trifluoromethyl)benzyl)-N3-(3,5-dichlorophenyl)-1H-1,2,4-triazole-3,5-diamine], the EC50 stood at 4.83 µM in the experiment on HCVpp GT-1b and 10 µM in the experiment with VSVpp.
For `N#Cc1c(Cl)cc(Nc2n[nH]c(NCc3ccc(C(F)(F)F)cc3)n2)cc1Cl` [Compound 22, 2,6-dichloro-4-(5-(4-(trifluoromethyl)benzylamino)-1H-1,2,4-triazol-3-ylamino)benzonitrile], in that order: 0.224 µM and 5.3 µM.
For `Clc1cc(Cl)cc(Nc2n[nH]c(NCc3ccccc3)n2)c1` [Compound 9, N5-benzyl-N3-(3,5-dichlorophenyl)-1H-1,2,4-triazole-3,5-diamine], the values for the concentration giving a half-maximal response (EC50) in the experiment on HCVpp GT-1b and in the experiment with VSVpp were 1.72 µM and 22.8 µM, respectively.
For `CC(C)(C)OC(=O)c1ccc(CNc2nc(Nc3cc(Cl)cc(Cl)c3)n[nH]2)cc1` [Compound 7, tert-butyl 4-((3-(3,5-dichlorophenylamino)-1H-1,2,4-triazol-5-ylamino)methyl)benzoate], in that order: 0.414 µM and 33.3 µM.
For `CC(=O)N1CCC(Nc2nc(Nc3cc(Cl)cc(Cl)c3)n[nH]2)CC1` [Compound 30, 1-{4-[5-(3,5-Dichloro-phenylamino)-2H-[1,2,4]triazol-3-ylamino]-piperidin-1-yl}-ethanone], in that order: 95.8 µM and 49.6 µM.
For `FC(F)(F)c1ccc(Cl)cc1CNc1nc(Nc2cc(Cl)cc(Cl)c2)n[nH]1` [Compound 4, N5-(5-chloro-2-(trifluoromethyl)benzyl)-N3-(3,5-dichlorophenyl)-1H-1,2,4-triazole-3,5-diamine], in that order: 4.66 µM and 13.2 µM.
For the compound `O=S(=O)(c1ccc(CNc2nc(Nc3cc(Cl)cc(Cl)c3)n[nH]2)cc1)N1CCCC1` [Compound 20, N3-(3,5-dichlorophenyl)-N5-(4-(pyrrolidin-1-ylsulfonyl)benzyl)-1H-1,2,4-triazole-3,5-diamine], the EC50 in the experiment with HCVpp GT-1b and in the experiment on VSVpp was 10 µM throughout.
Turning to `Cn1cc(CNc2nc(Nc3cc(Cl)cc(Cl)c3)n[nH]2)cn1` [Compound 11, N3-(3,5-dichlorophenyl)-N5-((1-methyl-1H-pyrazol-4-yl)methyl)-1H-1,2,4-triazole-3,5-diamine], the results for the EC50 with HCVpp GT-1b and in the experiment with VSVpp were 23.9 µM and 25.7 µM, respectively.
For `FC(F)(F)c1ccc(CNc2nc(Nc3cc(Cl)cc(Cl)c3)n[nH]2)cc1` [Compound 25, N*3*-(3,5-Dichloro-phenyl)-N*5*-(4-trifluoromethyl-benzyl)-1H-[1,2,4]triazole-3,5-diamine], in that order: 0.046 µM and 29.1 µM.
For `CS(=O)(=O)c1ccc(CNc2nc(Nc3cc(Cl)cc(Cl)c3)n[nH]2)cc1` [Compound 15, N3-(3,5-dichlorophenyl)-N5-(4-(methylsulfonyl)benzyl)-1H-1,2,4-triazole-3,5-diamine], in that order: 10 µM and 10 µM.
For `O=C(O)c1ccc(CNc2nc(Nc3cc(Cl)cc(Cl)c3)n[nH]2)cc1` [Compound 12, 4-((3-(3,5-dichlorophenylamino)-1H-1,2,4-triazol-5-ylamino)methyl)benzoic acid; trifluoroacetic acid salt], in that order: 19.5 µM and 100 µM.
As to `Clc1cc(Cl)cc(Nc2n[nH]c(NCc3ccco3)n2)c1` [Compound 2, N3-(3,5-dichlorophenyl)-N5-(furan-2-ylmethyl)-1H-1,2,4-triazole-3,5-diamine], the EC50 in the experiment on HCVpp GT-1b worked out at 2.58 µM; in the experiment on VSVpp it was 11.9 µM.
For `CC(C)(C)OC(=O)c1ccccc1CNc1nc(Nc2cc(Cl)cc(Cl)c2)n[nH]1` [Compound 8, tert-butyl 2-((3-(3,5-dichlorophenylamino)-1H-1,2,4-triazol-5-ylamino)methyl)benzoate], in that order: 9.99 µM and 22 µM.
Turning to `CS(=O)(=O)N1CCC(Nc2nc(Nc3cc(Cl)cc(Cl)c3)n[nH]2)CC1` [Compound 27, N*3*-(3,5-Dichloro-phenyl)-N*5*-(1-methanesulfonyl-piperidin-4-yl)-1H-[1,2,4]triazole-3,5-diamine], the figures for the EC50 in the experiment with HCVpp GT-1b and in the experiment with VSVpp were 59.6 µM and 42.4 µM, respectively.
For `Clc1cc(Cl)cc(Nc2n[nH]c(NCc3cncnc3)n2)c1` [Compound 31, N*3*-(3,5-Dichloro-phenyl)-N*5*-pyrimidin-5-ylmethyl-1H-[1,2,4]triazole-3,5-diamine], in that order: 44.3 µM and 100 µM.
As for `CC(C)S(=O)(=O)c1ccc(-c2c(Cl)cc(Nc3n[nH]c(NCc4ccc(C(=O)OC(C)(C)C)cc4)n3)cc2C(F)(F)F)cc1` [Compound 24, tert-butyl 4-((3-(2-chloro-4′-(isopropylsulfonyl)-6-(trifluoromethyl)biphenyl-4-ylamino)-1H-1,2,4-triazol-5-ylamino)methyl)benzoate], the values for the EC50 in the experiment with HCVpp GT-1b and in the experiment on VSVpp were 0.014 µM and 6.2 µM, respectively.
For `Clc1ccc(CNc2nc(Nc3cc(Cl)cc(Cl)c3)n[nH]2)nc1` [Compound 5, N5-((5-chloropyridin-2-yl)methyl)-N3-(3,5-dichlorophenyl)-1H-1,2,4-triazole-3,5-diamine], in that order: 1.57 µM and 33.6 µM.
With `CC(C)(C)OC(=O)N1CCC(Nc2nc(Nc3cc(Cl)cc(Cl)c3)n[nH]2)CC1` [Compound 28, 4-[5-(3,5-Dichloro-phenylamino)-2H-[1,2,4]triazol-3-ylamino]-piperidine-1-carboxylic acid tert-butyl ester], the results for the EC50 with HCVpp GT-1b and with VSVpp were 6.57 µM and 11.1 µM, respectively.
For `O=C(O)c1cccc(CNc2nc(Nc3cc(Cl)cc(Cl)c3)n[nH]2)c1` [Compound 13, 3-((3-(3,5-dichlorophenylamino)-1H-1,2,4-triazol-5-ylamino)methyl)benzoic acid; trifluoroacetic acid salt], in that order: 37.5 µM and 78.1 µM.
Turning to `Cc1ccc(CNc2nc(Nc3cc(Cl)cc(Cl)c3)n[nH]2)o1` [Compound 3, N3-(3,5-dichlorophenyl)-N5-((5-methylfuran-2-yl)methyl)-1H-1,2,4-triazole-3,5-diamine], the EC50 stood at 3.27 µM in the experiment with HCVpp GT-1b and 19.3 µM with VSVpp.
In the case of `Clc1cc(Cl)cc(Nc2n[nH]c(NC3CCNCC3)n2)c1` [Compound 29, N*3*-(3,5-Dichloro-phenyl)-N*5*-piperidin-4-yl-1H-[1,2,4]triazole-3,5-diamine; compound with trifluoro-acetic acid], the EC50 with HCVpp GT-1b and in the experiment with VSVpp was 10 µM each time.
As to `O=C(O)c1ccccc1CNc1nc(Nc2cc(Cl)cc(Cl)c2)n[nH]1` [Compound 14, 2-((3-(3,5-dichlorophenylamino)-1H-1,2,4-triazol-5-ylamino)methyl)benzoic acid; trifluoroacetic acid salt], the concentration giving a half-maximal response (EC50) in the experiment with HCVpp GT-1b was determined as 96 µM; in the experiment with VSVpp, 100 µM.
